Measurements taken from the supplement of paper PMC10307832.

Experiments:
Test in all cases: relative viability (nuclei count vs DMSO), 5 days (fraction); higher = more cells survive
[1] = compound: C1COCCN1CC2=CC(=O)C(=CO2)OCCCCCSC3=C4C=CC(=CC4=NC=C3)C(F)(F)F [EHT 1864]
Outline: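 Following overnight incubation at 37 °C, lung cancer cell lines in 1536-well plates were pinned with five library-drug doses (not always all listed) in √10 steps on vehicle-anchored plates. The cells then spent 5 days without medium change before a combined fix, permeabilisation and Hoechst stain, 4× imaging and MetaXpress nuclear counts. Viability is the treated-to-vehicle ratio of nuclei, taken as the median across plates. Only plates with control CV below 25% and at least one doubling passed.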

[2] = compound: C1COCCN1CC2=CC(=O)C(=CO2)OCCCCCSC3=C4C=CC(=CC4=NC=C3)C(F)(F)F [EHT 1864] + CC(=O)Nc1cccc(-n2c(=O)n(C3CC3)c(=O)c3c(Nc4ccc(I)cc4F)n(C)c(=O)c(C)c32)c1 [Trametinib] (partner 0.02 µM)
Outline: (§1)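 Relative viability was taken as the ratio of nuclei in treated wells to nuclei in vehicle wells. Lung cancer cell lines in 1536-well plates received compounds by pin tool one day after seeding, either one drug alone or a fixed anchor-drug dose plus five library-drug doses (not always all listed) in √10 steps. Nuclei were counted on 4× images after 5 days of treatment, and values are medians of duplicate plates.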

[3] = compound: C1COCCN1CC2=CC(=O)C(=CO2)OCCCCCSC3=C4C=CC(=CC4=NC=C3)C(F)(F)F [EHT 1864] + COc1cccc2cc(-c3nc([C@H]4CC[C@H](C(=O)O)CC4)n4ncnc(N)c34)[nH]c12 [OSI-027] (partner 0.5 µM)
Outline: as §1

[4] = compound: C1COCCN1CC2=CC(=O)C(=CO2)OCCCCCSC3=C4C=CC(=CC4=NC=C3)C(F)(F)F [EHT 1864] + N=C(N)NC(=N)NCCc1ccccc1 [Phenformin] (partner 250 µM)
Outline: as §1

Cell Line: 201T
- relative viability ([1]; 0.04 µM): 0.97
- relative viability ([1]; 0.1265 µM): 0.92
- relative viability ([1]; 0.4 µM): 1.02
- relative viability ([1]; 1.265 µM): 0.974
- relative viability ([1]; 4 µM): 0.913
- relative viability ([2]; first compound 0.04 µM): 0.702
- relative viability ([2]; first compound 0.1265 µM): 0.707
- relative viability ([2]; first compound 0.4 µM): 0.681
- relative viability ([2]; first compound 1.265 µM): 0.693
- relative viability ([2]; first compound 4 µM): 0.605
- relative viability ([3]; first compound 0.04 µM): 0.762
- relative viability ([3]; first compound 0.1265 µM): 0.549
- relative viability ([3]; first compound 0.4 µM): 0.623
- relative viability ([3]; first compound 1.265 µM): 0.572
- relative viability ([3]; first compound 4 µM): 0.744
- relative viability ([4]; first compound 0.04 µM): 0.471
- relative viability ([4]; first compound 0.1265 µM): 0.423
- relative viability ([4]; first compound 0.4 µM): 0.434
- relative viability ([4]; first compound 1.265 µM): 0.483
- relative viability ([4]; first compound 4 µM): 0.445

Cell Line: A549
- relative viability ([1]; 0.04 µM): 0.88
- relative viability ([1]; 0.1265 µM): 0.937
- relative viability ([1]; 0.4 µM): 0.921
- relative viability ([1]; 1.265 µM): 0.948
- relative viability ([1]; 4 µM): 0.883
- relative viability ([4]; first compound 0.04 µM): 0.267
- relative viability ([4]; first compound 0.1265 µM): 0.14
- relative viability ([4]; first compound 0.4 µM): 0.186
- relative viability ([4]; first compound 1.265 µM): 0.0995
- relative viability ([4]; first compound 4 µM): 0.168

Cell Line: A-427
- relative viability ([1]; 0.04 µM): 0.975
- relative viability ([1]; 0.1265 µM): 0.922
- relative viability ([1]; 0.4 µM): 1.03
- relative viability ([1]; 1.265 µM): 0.956
- relative viability ([1]; 4 µM): 0.882
- relative viability ([2]; first compound 0.04 µM): 0.698
- relative viability ([2]; first compound 0.1265 µM): 0.837
- relative viability ([2]; first compound 0.4 µM): 0.758
- relative viability ([2]; first compound 1.265 µM): 0.812
- relative viability ([2]; first compound 4 µM): 0.736
- relative viability ([3]; first compound 0.04 µM): 0.524
- relative viability ([3]; first compound 0.1265 µM): 0.345
- relative viability ([3]; first compound 0.4 µM): 0.503
- relative viability ([3]; first compound 1.265 µM): 0.447
- relative viability ([3]; first compound 4 µM): 0.469
- relative viability ([4]; first compound 0.04 µM): 0.343
- relative viability ([4]; first compound 0.1265 µM): 0.309
- relative viability ([4]; first compound 0.4 µM): 0.282
- relative viability ([4]; first compound 1.265 µM): 0.285
- relative viability ([4]; first compound 4 µM): 0.265

Cell Line: ABC-1
- relative viability ([1]; 0.04 µM): 1.13
- relative viability ([1]; 0.1265 µM): 0.964
- relative viability ([1]; 0.4 µM): 0.946
- relative viability ([1]; 1.265 µM): 0.7
- relative viability ([1]; 4 µM): 0.627
- relative viability ([3]; first compound 0.04 µM): 0.469
- relative viability ([3]; first compound 0.1265 µM): 0.504
- relative viability ([3]; first compound 0.4 µM): 0.48
- relative viability ([3]; first compound 1.265 µM): 0.513
- relative viability ([3]; first compound 4 µM): 0.436
- relative viability ([4]; first compound 0.04 µM): 0.24
- relative viability ([4]; first compound 0.1265 µM): 0.258
- relative viability ([4]; first compound 0.4 µM): 0.208
- relative viability ([4]; first compound 1.265 µM): 0.273
- relative viability ([4]; first compound 4 µM): 0.218

Cell Line: BEN
- relative viability ([1]; 0.04 µM): 0.864
- relative viability ([1]; 0.1265 µM): 0.812
- relative viability ([1]; 0.4 µM): 1.05
- relative viability ([1]; 1.265 µM): 0.871
- relative viability ([1]; 4 µM): 0.967
- relative viability ([2]; first compound 0.04 µM): 0.819
- relative viability ([2]; first compound 0.1265 µM): 0.949
- relative viability ([2]; first compound 0.4 µM): 1.09
- relative viability ([2]; first compound 1.265 µM): 0.928
- relative viability ([2]; first compound 4 µM): 1.1
- relative viability ([3]; first compound 0.04 µM): 0.303
- relative viability ([3]; first compound 0.1265 µM): 0.278
- relative viability ([3]; first compound 0.4 µM): 0.297
- relative viability ([3]; first compound 1.265 µM): 0.299
- relative viability ([3]; first compound 4 µM): 0.302
- relative viability ([4]; first compound 0.04 µM): 0.251
- relative viability ([4]; first compound 0.1265 µM): 0.275
- relative viability ([4]; first compound 0.4 µM): 0.282
- relative viability ([4]; first compound 1.265 µM): 0.263
- relative viability ([4]; first compound 4 µM): 0.247

Cell Line: CAL-12T
- relative viability ([1]; 0.04 µM): 1.02
- relative viability ([1]; 0.1265 µM): 0.902
- relative viability ([1]; 0.4 µM): 0.991
- relative viability ([1]; 1.265 µM): 0.963
- relative viability ([1]; 4 µM): 0.887
- relative viability ([2]; first compound 0.04 µM): 0.35
- relative viability ([2]; first compound 0.1265 µM): 0.287
- relative viability ([2]; first compound 0.4 µM): 0.333
- relative viability ([2]; first compound 1.265 µM): 0.399
- relative viability ([2]; first compound 4 µM): 0.39
- relative viability ([3]; first compound 0.04 µM): 0.591
- relative viability ([3]; first compound 0.1265 µM): 0.437
- relative viability ([3]; first compound 0.4 µM): 0.593
- relative viability ([3]; first compound 1.265 µM): 0.552
- relative viability ([3]; first compound 4 µM): 0.8
- relative viability ([4]; first compound 0.04 µM): 0.582
- relative viability ([4]; first compound 0.1265 µM): 0.574
- relative viability ([4]; first compound 0.4 µM): 0.662
- relative viability ([4]; first compound 1.265 µM): 0.583
- relative viability ([4]; first compound 4 µM): 0.596

Cell Line: COR-L23
- relative viability ([1]; 0.04 µM): 0.964
- relative viability ([1]; 0.1265 µM): 0.885
- relative viability ([1]; 0.4 µM): 0.956
- relative viability ([1]; 1.265 µM): 0.971
- relative viability ([1]; 4 µM): 0.824
- relative viability ([2]; first compound 0.04 µM): 0.524
- relative viability ([2]; first compound 0.1265 µM): 0.453
- relative viability ([2]; first compound 0.4 µM): 0.598
- relative viability ([2]; first compound 1.265 µM): 0.631
- relative viability ([2]; first compound 4 µM): 0.553
- relative viability ([3]; first compound 0.04 µM): 0.821
- relative viability ([3]; first compound 0.1265 µM): 0.467
- relative viability ([3]; first compound 0.4 µM): 0.647
- relative viability ([3]; first compound 1.265 µM): 0.796
- relative viability ([3]; first compound 4 µM): 0.747
- relative viability ([4]; first compound 0.04 µM): 0.53
- relative viability ([4]; first compound 0.1265 µM): 0.368
- relative viability ([4]; first compound 0.4 µM): 0.484
- relative viability ([4]; first compound 1.265 µM): 0.5
- relative viability ([4]; first compound 4 µM): 0.491

Cell Line: COR-L 105
- relative viability ([1]; 0.04 µM): 0.893
- relative viability ([1]; 0.1265 µM): 0.869
- relative viability ([1]; 0.4 µM): 1.05
- relative viability ([1]; 1.265 µM): 0.975
- relative viability ([1]; 4 µM): 0.945
- relative viability ([2]; first compound 0.04 µM): 0.443
- relative viability ([2]; first compound 0.1265 µM): 0.395
- relative viability ([2]; first compound 0.4 µM): 0.513
- relative viability ([2]; first compound 1.265 µM): 0.462
- relative viability ([2]; first compound 4 µM): 0.508
- relative viability ([3]; first compound 0.04 µM): 0.773
- relative viability ([3]; first compound 0.1265 µM): 0.559
- relative viability ([3]; first compound 0.4 µM): 0.851
- relative viability ([3]; first compound 1.265 µM): 0.61
- relative viability ([3]; first compound 4 µM): 0.655
- relative viability ([4]; first compound 0.04 µM): 0.535
- relative viability ([4]; first compound 0.1265 µM): 0.427
- relative viability ([4]; first compound 0.4 µM): 0.602
- relative viability ([4]; first compound 1.265 µM): 0.536
- relative viability ([4]; first compound 4 µM): 0.535

Cell Line: Calu-6
- relative viability ([1]; 0.04 µM): 1
- relative viability ([1]; 0.1265 µM): 0.93
- relative viability ([1]; 0.4 µM): 1.01
- relative viability ([1]; 1.265 µM): 0.991
- relative viability ([1]; 4 µM): 0.955
